A value given as a limit tells only on which side of the number the result lay.

In one assay the test system is NCI-H358 human non-small cell lung cancer cell with KRAS G12C mutation. Briefly: Cell Titer-Glo cell viability, NCI-H358 cells (72 h). Type of assay: cell-based. The settings on record: Homo sapiens, NCI-H358, 72 h, class symbols. The source says: Effect Example 1: Pharmacodynamic Assay 1 (Determination of the efficacy of the compounds of the present disclosure on NCI-H358 human non-small cell lung cancer cell with KRAS G12C mutation)
The following method was used to determine the effect of the compounds of the present disclosure on tumor cell proliferation.
For the KRAS G12C subtype, NCI-H358 non-small cell lung cancer cells with KRAS G12C mutation were used to determine the efficacy of the compounds in inhibiting cancer cell viability. NCI-H358 cells were cultured in a DMEM medium containing 10% fetal bovine serum, 100 U penicillin and […] streptomycin. The cells were cultured in an incubator with 5% CO2 at 37° C. Cancer cell viability was evaluated by determining the content of ATP with Cell Titer-Glo® kit (Luminescent Cell Viability Assay kit, please refer to the manufacturer's instructions for use) and evaluating the inhibition of cell growth.
The experimental method was proceeded in accordance with the steps in the instructions for the kit, and was described briefly as follows. The test compounds were first dissolved in DMSO to prepare stock solutions, and then the stock solutions were subjected to gradient dilution with the culture media of the corresponding cells, thereby preparing test samples. The final concentrations of the compounds were in the range of 30 μM to 0.01 nM. Tumor cells in logarithmic growth phase were seeded into a 96-well cell culture plate at an appropriate density. After the cell culture plate was left overnight in an incubator with 5% CO2 at 37° C., the test compound samples were added thereto and then the cells were further cultured for 72 hours. After the incubation was complete, an appropriate volume of Cell Titer-Glo® reagent was added into each well, and the cells were incubated at 37° C. for 1 to 4 hours. Then, the […] was read on a microplate reader.
For orientation: In ATP-based viability assays light output follows the ATP content of the culture.
As a reminder, the IC50 is the concentration that inhibits the measured activity by half. A high value points to lower potency. Turning to `C=CC(=O)N1CCN(c2c(C#N)c(=O)n(-c3ccccc3C(C)C)c3cc(-c4cccc5ccoc45)c(Cl)cc23)[C@@H](C)C1` [Compound I-55], the IC50 lay within 100 to 1000 nM.

The compound `C=CC(=O)N1CCN(c2c(C#N)c(=O)n(-c3ccccc3C(C)C)c3cc(-c4cc(F)ccc4N)c(Cl)cc23)[C@@H](C)C1` [Compound I-69] returned an IC50 below 100 nM.

For the compound `C=CC(=O)N1CCN(c2c(C#N)c(=O)n(-c3ccccc3C(C)C)c3cc(-c4ccc(N)cc4F)c(Cl)cc23)[C@@H](C)C1` [Compound I-45], the IC50 lay in the range of 100 to 1000 nM.

In turn, `C=CC(=O)N1CCN(c2c(C#N)c(=O)n(-c3ccccc3C(C)C)c3cc(-c4c(C)cnn4C)c(Cl)cc23)[C@@H](C)C1` [Compound I-21] yielded an IC50 of 100 to 1000 nM.

With `C=CC(=O)N1CCN(c2c(C#N)c(=O)n(-c3ccccc3C(C)C)c3cc(-c4ccnc5[nH]ccc45)c(Cl)cc23)[C@@H](C)C1` [Compound I-52], the IC50 lay within 100 to 1000 nM.

Turning to `C=CC(=O)N1CCN(c2c(C#N)c(=O)n(-c3ccccc3C(C)C)c3cc(-c4ccc(N)nc4)c(Cl)cc23)[C@@H](C)C1` [Compound I-64], the IC50 was in the range of 100 to 1000 nM.

Turning to `C=CC(=O)N1CCN(c2c(C#N)c(=O)n(-c3ccccc3C(C)C)c3cc(-c4c(C)cccc4C)c(Cl)cc23)[C@@H](C)C1` [Compound I-48], the IC50 lay in the range of 100 to 1000 nM.

With `C=CC(=O)N1CCN(c2c(C#N)c(=O)n(-c3ccccc3C(C)C)c3cc(-c4cccc5c4OCCO5)c(Cl)cc23)[C@@H](C)C1` [Compound I-26], the IC50 was in the range of 100 to 1000 nM.

Take `C=CC(=O)N1CCN(c2c(C#N)c(=O)n(-c3ccccc3C(C)C)c3cc(-c4ccn(C)c(=O)c4)c(Cl)cc23)[C@@H](C)C1` [Compound I-68]: the IC50 was 100 to 1000 nM.

For the compound `C=CC(=O)N1CCN(c2c(C#N)c(=O)n(-c3ccccc3C(C)C)c3cc(-c4ccc(Cl)cc4F)c(Cl)cc23)[C@@H](C)C1` [Compound I-42], the IC50 was 100 to 1000 nM.

Take `C=CC(=O)N1CCN(c2c(C#N)c(=O)n(-c3ccccc3C(C)C)c3cc(-c4cncc(N)c4)c(Cl)cc23)[C@@H](C)C1` [Compound I-59]: the IC50 was above 1000 nM.

For the compound `C=CC(=O)N1CCN(c2c(C#N)c(=O)n(-c3c(C)ccnc3C(C)C)c3cc(-c4c(C)ccc5[nH]ncc45)c(Cl)cc23)[C@@H](C)C1` [Compound I-83-1], the IC50 was below 100 nM.

Consider `C=CC(=O)N1CCN(c2c(C#N)c(=O)n(-c3ccccc3C(C)C)c3cc(-c4cc(O)ccc4F)c(Cl)cc23)[C@@H](C)C1` [Compound I-73], for which the IC50 was in the range of 100 to 1000 nM.

In turn, `C=CC(=O)N1CCN(c2c(C#N)c(=O)n(-c3c(C)ccnc3C(C)C)c3cc(-c4c(OC)ccc(Cl)c4F)c(Cl)cc23)[C@@H](C)C1` [Compound I-84-1] came in with an IC50 below 100 nM.

On to `C=CC(=O)N1CCN(c2c(C#N)c(=O)n(-c3ccccc3C(C)C)c3cc(-c4ccc(Cl)cc4N)c(Cl)cc23)[C@@H](C)C1` [Compound I-57], for which the IC50 was below 100 nM.

In turn, `C=CC(=O)N1CCN(c2c(C#N)c(=O)n(-c3c(C(C)C)ncnc3C(C)C)c3cc(-c4c(C)ccc5[nH]ncc45)c(Cl)cc23)[C@@H](C)C1` [Compound I-86-1] yielded a concentration for half-maximal inhibition (IC50) below 100 nM.

`C=CC(=O)N1CCN(c2c(C#N)c(=O)n(-c3ccccc3C(C)C)c3cc(-c4ccccc4C(N)=O)c(Cl)cc23)[C@@H](C)C1` [Compound I-12] displayed an IC50 of 100 to 1000 nM.

`C=CC(=O)N1CCN(c2c(C#N)c(=O)n(-c3ccccc3C(C)C)c3cc(-c4cnc(C5CC5)nc4)c(Cl)cc23)[C@@H](C)C1` [Compound I-27] displayed an IC50 of 100 to 1000 nM.

For `C=CC(=O)N1CCN(c2c(C#N)c(=O)n(-c3ccccc3C(C)C)c3cc(-c4cc(Cl)cc(F)c4N)c(Cl)cc23)[C@@H](C)C1` (atropisomer, axis not shown) [Compound I-78], the IC50 was below 100 nM.

For `C=CC(=O)N1CCN(c2c(C#N)c(=O)n(-c3ccccc3C(C)C)c3cc(-c4ccc(Cl)cc4Cl)c(Cl)cc23)[C@@H](C)C1` [Compound I-38], the IC50 fell in the range of 100 to 1000 nM.

Compound `C=CC(=O)N1CCN(c2c(C#N)c(=O)n(-c3ccccc3C(C)C)c3cc(-c4ccc(C#N)cc4N)c(Cl)cc23)[C@@H](C)C1` [Compound I-60] gave an IC50 of 100 to 1000 nM.

Turning to `C=CC(=O)N1CCN(c2c(C#N)c(=O)n(-c3ccccc3C(C)C)c3cc(-c4cc(Cl)cc(Cl)c4)c(Cl)cc23)[C@@H](C)C1` [Compound I-39], the IC50 lay in the range of 100 to 1000 nM.

On to `C=CC(=O)N1CCN(c2c(C#N)c(=O)n(-c3ccccc3C(C)C)c3cc(-c4cc(Cl)ccc4N)c(Cl)cc23)[C@@H](C)C1` [Compound I-43], for which the IC50 is below 100 nM.

Compound `C=CC(=O)N1CCN(c2c(C#N)c(=O)n(-c3ccccc3C(C)C)c3cc(-c4ccc(Cl)c5ccccc45)c(Cl)cc23)[C@@H](C)C1` [Compound I-24] showed an IC50 below 100 nM.

In turn, `C=CC(=O)N1CCN(c2c(C#N)c(=O)n(-c3ccccc3C(C)C)c3cc(-c4cc(C)ccc4O)c(Cl)cc23)[C@@H](C)C1` [Compound I-66] gave an IC50 below 100 nM.

On to `C=CC(=O)N1CCN(c2c(C#N)c(=O)n(-c3ccccc3C(C)C)c3cc(-c4cc(C(F)(F)F)cc(Cl)c4N)c(Cl)cc23)[C@@H](C)C1` [Compound I-79], for which the half-inhibitory concentration (IC50) was below 100 nM.

Regarding `C=CC(=O)N1CCN(c2c(C#N)c(=O)n(-c3ccccc3C(C)C)c3cc(-c4cc(C#N)ccc4C)c(Cl)cc23)[C@@H](C)C1` [Compound I-49], the IC50 lay within 100 to 1000 nM.

As for `C=CC(=O)N1CCN(c2c(C#N)c(=O)n(-c3ccccc3C(C)C)c3cc(-c4ccc(C)c(O)c4)c(Cl)cc23)[C@@H](C)C1` [Compound I-67], the IC50 is 100 to 1000 nM.

In turn, `C=CC(=O)N1CCN(c2c(C#N)c(=O)n(-c3ccccc3C(C)C)c3cc(-c4ccccc4F)c(Cl)cc23)[C@@H](C)C1` [Compound I-10] returned an IC50 above 1000 nM.

As for `C=CC(=O)N1CCN(c2c(C#N)c(=O)n(-c3ccccc3C(C)C)c3cc(-c4c(C)noc4C)c(Cl)cc23)[C@@H](C)C1` [Compound I-34], the IC50 is above 1000 nM.

Turning to `C=CC(=O)N1CCN(c2c(C#N)c(=O)n(-c3ccccc3C(C)C)c3cc(-c4cc(F)ccc4O)c(Cl)cc23)[C@@H](C)C1` [Compound I-70], the half-inhibitory concentration (IC50) was below 100 nM.

In the case of `C=CC(=O)N1CCN(c2c(C#N)c(=O)n(-c3ccccc3C(C)C)c3cc(-c4ccc(C5CC5)cc4)c(Cl)cc23)[C@@H](C)C1` [Compound I-53], the IC50 was 100 to 1000 nM.

As for `C=CC(=O)N1CCN(c2c(C#N)c(=O)n(-c3ccccc3C(C)C)c3cc(-c4ccc(C(F)(F)F)nc4)c(Cl)cc23)[C@@H](C)C1` [Compound I-40], the IC50 is above 1000 nM.

`C=CC(=O)N1CCN(c2c(C#N)c(=O)n(-c3ccccc3C(C)C)c3cc(-c4cccc(N)n4)c(Cl)cc23)[C@@H](C)C1` [Compound I-41] returned an IC50 of 100 to 1000 nM.

Take `C=CC(=O)N1CCN(c2c(C#N)c(=O)n(-c3ccccc3C(C)C)c3cc(-c4cccc5ccncc45)c(Cl)cc23)[C@@H](C)C1` [Compound I-23]: the IC50 is 100 to 1000 nM.

Staying with this assay, now noted: class symbols.
The compound `C=CC(=O)N1CC2(CCN(c3c(C#N)c(=O)n(-c4ccccc4C(C)C)c4cc(-c5c(C)ccc6[nH]ncc56)c(Cl)cc34)CC2)C1` (single isomer, unassigned) [Compound I-5-2] yielded an IC50 of 100 to 1000 nM.

Compound `C=CC(=O)N1CCN(c2c(C#N)c(=O)n(-c3ccccc3C(C)C)c3cc(-c4cc(Cl)ccc4N)c(Cl)cc23)[C@@H](C)C1` [Compound I-82] gave an IC50 below 100 nM.

On to `C=CC(=O)N1CCN(c2c(C#N)c(=O)n(-c3ccccc3Cl)c3cc(-c4c(OC)ccc(Cl)c4F)c(Cl)cc23)[C@@H](C)C1` [Compound I-85-2], for which the IC50 lay within 100 to 1000 nM.

`C=CC(=O)N1CCN(c2c(C#N)c(=O)n(-c3ccccc3C(C)C)c3cc(-c4c(OC)ccc(Cl)c4F)c(Cl)cc23)[C@@H](C)C1` (single isomer, unassigned) [Compound I-7-2] gave an IC50 of 100 to 1000 nM.

For `C=CC(=O)N1C[C@H](C)N(c2c(C#N)c(=O)n(-c3ccccc3C(C)C)c3cc(-c4c(C)ccc5[nH]ncc45)c(Cl)cc23)C[C@H]1C` (single isomer, unassigned) [Compound I-4-2], the IC50 fell in the range of 100 to 1000 nM.

For the compound `C=CC(=O)N1C[C@H](C)N(c2c(C#N)c(=O)n(-c3ccccc3C(C)C)c3cc(-c4c(C)ccc5[nH]ncc45)c(Cl)cc23)C[C@H]1C` (single isomer, unassigned) [Compound I-4-1], the IC50 is above 1000 nM.

As for `C=CC(=O)N1CCN(c2c(C#N)c(=O)n(-c3c(C)ccnc3C(C)C)c3cc(-c4c(C)ccc5[nH]ncc45)c(Cl)cc23)[C@@H](C)C1` [Compound I-83-2], the IC50 fell in the range of 100 to 1000 nM.

Turning to `C=CC(=O)N1CCN(c2c(C#N)c(=O)n(-c3c(C(C)C)ncnc3C(C)C)c3cc(-c4c(C)ccc5[nH]ncc45)c(Cl)cc23)[C@@H](C)C1` [Compound I-86-2], the IC50 lay within 100 to 1000 nM.

The assay is the same for the next values; noted with them: numeric values.
Compound `C=CC(=O)N1CCN(c2c(C#N)c(=O)n(-c3ccccc3C(C)C)c3cc(-c4c(C)ccc5[nH]ncc45)c(Cl)cc23)[C@H](C)C1` (single isomer, unassigned) [Compound I-3-2] displayed an IC50 of 250 nM.

Compound `C=CC(=O)N1CCN(c2c(C#N)c(=O)n(-c3ccccc3C(C)C)c3cc(-c4c(C)ccc5[nH]ncc45)c(Cl)cc23)[C@H](C)C1` (single isomer, unassigned) [Compound I-3-1] registered an IC50 of 1980 nM.

These data come from US20220064141A1, “BENZOPYRIDONE HETEROCYCLIC COMPOUND AND USE THEREOF” (BrightGene Bio-Medical Technology Co., Ltd., priority 2019, published 2022).
